Laboratory results published in patent US9429568B2, “Silaanthracene as a red and near infrared sensor and a method to manufacture such a sensor” (Board of Trustees of Southern Illinois University on Behalf …, priority 2010, dated 2016).

Key:
[1] = Ratiometric sensor for hypochlorous acid and pH: UV-Vis and fluorescence in buffer series; format: physicochemical; conditions: excited at 430 nm, all HOCl concentrations, phosphate or citrate/phosphate buffer, 0.5% DMF
Experimental: A solution of compound 29 from Table 4 herein was dissolved in a series of phosphate buffer or citrate/phosphate buffer solutions using 0.5% DMF for dissolution. The pH level of each sample solution was checked using a digital pH meter (Accumet, AB15) equipped with a glass electrode (Accumet, pH/ATC Calomel) to confirm the pH of each sample solution. After recording the pH of a sample solution, 20 mL of the sample solution was stirred in a 50 mL beaker to saturate the sample solution with oxygen. Small aliquots from a dilute HOCl solution were then added to the sample solution. After the addition of each HOCl aliquot, the sample solution was stirred for approximately 45 seconds and then the UV-Vis and fluorescence of the sample solution was measured using a quartz cuvette with fluorescence excitations at 570 nm and 430 nm. The concentration of the NaOCl solution was determined by using a standardized sodium thiosulfate solution.

[2] = Hypochlorous acid (HOCl) sensor: fluorescence and absorbance response to added HOCl; format: physicochemical; conditions: 0.5 μM compound; for peak emission intensity wavelength: all HOCl concentrations
Experimental: A solution of compound 3 from Table 2 herein was formed at a concentration of 0.5 μM and at a pH of 7.4. HOCl was added to the solution at concentrations ranging up to 2 μM and the fluorescence of the resulting solutions was measured after exposure to an excitatory light pulse of 655 nm.
A solution of compound 29 from Table 5 herein was formed at a concentration of 0.5 μM and at a pH of 7.4. HOCl was added to the solution at concentrations ranging up to 5 μM and the fluorescence of the resulting solutions was measured after exposure to an excitatory light pulse of 580 nm.

C[Si]1(C)c2cc(O)ccc2C2(c3ccccc3C(=O)N2CCN2CCNCCNCCNCC2)c2ccc(O)cc21 [Compound 29]
first emission intensity peak wavelength [1]: 570 nm
second more intense emission peak wavelength [1]: 600 nm
maximum absorbance wavelength λmax ([2]; pH 7.4, HOCl up to 5 μM): 590 nm
shoulder peak emission wavelength ([2]; pH 7.4, HOCl up to 5 μM, excited at 430 nm): 570 nm
peak emission intensity wavelength ([2]; pH 7.4, HOCl up to 5 μM, excited at 570 nm): 605 nm

CN(C)c1ccc2c(c1)[Si](C)(C)c1cc(N(C)C)ccc1C21SCc2ccccc21 [Compound 3]
peak emission intensity wavelength ([2]; pH 7.4, HOCl up to 2 μM, excitation 655 nm): 663 nm
